Measurements as given in patent publication US20130210899A1, “Method and Therapeutic for the Treatment and Regulation of Memory Formation” (The Regents of the University of California, priority 2010, published 2013).

Legend:
neuronal morphology = test: DAPI staining of neuronal morphology after intrahippocampal infusion; type: in vivo, C57BL/6 mice; conditions: 1.25 ng/side intrahippocampal infusion, 2 hours
Protocol: (§1) Two weeks after mice were infused with AAV-Cre or two hours after hippocampal infusion of the inhibitor, mice were anesthetized deeply with sodium pentobarbital (100 mg/kg, i.p.) and perfused transcardially with ice-cold PBS, pH 7.4, followed by ice-cold 4% paraformaldehyde in PBS, pH 7.4, using a peristaltic perfusion pump (Fisher Scientific). The brains were removed, postfixed overnight at 4° C., and then transferred to 30% sucrose for 48 hr at 4° C. Brains were frozen and cryocut to 20 μm coronal slices, and sections were stored in 0.1M PBS. Floating sections were rinsed in 0.1% Triton X-100 (Fisher Scientific) in PBS, rinsed in PBS, and then blocked for 1 hr at room temperature in 8% normal goat serum (NGS, Jackson ImmunoResearch Laboratories) with 0.3% Triton X-100 in PBS. Sections were rinsed in PBS and for single labeling they were incubated overnight at 4° C. in 2% NGS, 0.3% Triton X-100 in PBS with primary antibody. The sections were then rinsed in PBS and incubated for 2 hr at room temperature with goat anti-rabbit IgG-FITC secondary antibody (1:1000, Millipore Bioscience International). Sections were rinsed again in PBS and mounted on slides using ProLong Gold antifade reagent with DAPI (Invitrogen). […]

CBP^+/+ mice = test: OLM task in CBP+/+ mice after intrahippocampal infusion; type: in vivo; conditions: intrahippocampal 1.25 ng/side after 3 min training, 24 h
Protocol: (§2) To generate a focal deletion, mice were infused with adeno associated virus expressing Cre-recombinase (AAV2/1-Cre; Penn Vector Core, University of Pennsylvania, Philadelphia, Pa.) 2 weeks prior to behavioral procedures. Mice were anesthetized with isoflurane and placed in a digital Just For Mice stereotax (Stoelting, Wood Dale, Ill.). 1.0 μl of virus was injected at a rate of 6 μl/hr via an infusion needle positioned in the dorsal CA1 area of the hippocampus (antereoposterior (AP) −2.0; mediolateral (ML) ±1.5; dorsoventral (DV) −1.5). NCoR homozygous knock-in mice (referred to as DADm mice) were generated on C57BL/6 background using homologous recombination to incorporate a single amino acid substitution (Y478A) in the NCoR deacetylase activation domain (DAD). […]
(§3) All combinations and locations of objects were used in a balanced manner to reduce potential biases due to preference for particular locations or objects. All training and testing trials were videotaped and analyzed by individuals blind to the treatment condition and the genotype of subjects. A mouse was scored as exploring an object when its head was oriented toward the object within a distance of 1 cm or when the nose was touching the object. The relative exploration time was recorded and expressed by a discrimination index [DI=(tnovel−tfamiliar)/(tnovel+tfamiliar)×100]. […]

H4K8Ac = test: Immunohistochemistry of dorsal hippocampus 2 hours after intrahippocampal infusion; type: in vivo, C57BL/6 mice; conditions: 1.25 ng/side intrahippocampal infusion
Protocol: as §1, with “International).” for “International). Sections were rinsed again in PBS and mounted on slides using ProLong Gold antifade reagent with DAPI (Invitrogen).”
(§4) Images were acquired and using an Olympus (BX51, Japan) microscope using a 4× or 20× objective, CCD camera (QImaging), and QCapture Pro 6.0 software (QImaging) and quantified with ImageJ software (NIH). […]

HDAC2 = target: T1, HDAC2 (Mus musculus, UniProt P70288); test: as above; type: in vivo, C57BL/6 mice; conditions: 1.25 ng/side intrahippocampal infusion
T1 construct: from tissue; host or cells: dorsal hippocampus of C57BL/6 mice
T1 sequence (P70288 whole entry, the tested form may be a part): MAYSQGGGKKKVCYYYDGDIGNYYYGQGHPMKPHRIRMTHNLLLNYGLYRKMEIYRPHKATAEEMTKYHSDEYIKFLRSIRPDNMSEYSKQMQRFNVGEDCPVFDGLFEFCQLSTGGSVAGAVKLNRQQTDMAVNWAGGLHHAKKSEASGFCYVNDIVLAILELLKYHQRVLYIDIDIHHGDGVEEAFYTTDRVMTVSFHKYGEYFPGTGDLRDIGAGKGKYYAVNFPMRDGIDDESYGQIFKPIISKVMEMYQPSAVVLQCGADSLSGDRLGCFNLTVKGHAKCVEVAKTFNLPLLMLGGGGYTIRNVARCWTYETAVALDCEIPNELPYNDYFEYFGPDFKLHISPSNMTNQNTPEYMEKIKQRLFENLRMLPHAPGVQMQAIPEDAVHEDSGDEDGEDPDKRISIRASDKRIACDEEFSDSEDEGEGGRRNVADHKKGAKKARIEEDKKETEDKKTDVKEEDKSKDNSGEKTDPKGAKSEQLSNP
Protocol: as §1, with “International).” for “International). Sections were rinsed again in PBS and mounted on slides using ProLong Gold antifade reagent with DAPI (Invitrogen).”
as §4

HDAC4 = test: as above; type: in vivo, C57BL/6 mice; conditions: 1.25 ng/side intrahippocampal infusion
Protocol: as §1, with “International).” for “International). Sections were rinsed again in PBS and mounted on slides using ProLong Gold antifade reagent with DAPI (Invitrogen).”
as §4

C57BL/6J male mice [1] = test: Novel object recognition memory (ORM) task after subthreshold training; type: in vivo; conditions: 24 h test; for long-term memory formation vs vehicle-treated mice, ORM: 3, 10, 30 mg/kg s.c. after 3 min training; for dose-dependent effect on ORM: 3, 10, 30 mg/kg s.c.
Protocol: Training and testing for location-dependent object recognition memory (OLM) and novel object recognition memory (ORM) was carried out as previously described. […] The experimental apparatus was a white rectangular open field (30×23×21.5 cm).
24-h later mice were tested for memory retention (5 min) using the object recognition memory task, in which a familiar object was replaced with a novel one. A discrimination index (DI) above zero indicates a preference for the novel object.

in vivo = conditions: mouse, brain, sc, 30 mg/kg
CBP^KIX/KIX mice = test: OLM task in CBP KIX/KIX mutant mice after intrahippocampal infusion; type: in vivo; conditions: intrahippocampal 1.25 ng/side after 3 min training, 24 h
Protocol: as §2, §3

C57BL/6J male mice [2] = test: Location-dependent object recognition memory (OLM) task after subthreshold training; type: in vivo; conditions: for memory for object location vs vehicle, OLM: 1.25 ng/side intrahippocampal after 3 min training
Protocol: Training and testing for location-dependent object recognition memory (OLM) and novel object recognition memory (ORM) was carried out as previously described. (See, e.g., Roozendaal et al., J Neurosci 30:5037-5046, 2010, the disclosure of which is incorporated herein by reference.) Prior to training, mice were handled 1-2 min for 5 days and were habituated to the experimental apparatus 3 min a day for 3 consecutive days in the absence of objects. The experimental apparatus was a white rectangular open field (30×23×21.5 cm).
(See, Stefanko et al., Proc Natl Acad Sci USA 106:9447-9452, 2009, the disclosures of which are incorporated herein by reference.) During the 24-h or 7-day retention test, mice were placed in the experimental apparatus for 5 min. For object recognition memory (ORM), one copy of the familiar object (A3) and a new object (B1) were placed in the same location as during the training trial. For location-dependent object recognition memory (OLM), one copy of the familiar object (A3) was placed in the same location as during the training trial and one copy of the familiar object (A4) was placed in the middle of the box.
All combinations and locations of objects were used in a balanced manner to reduce potential biases due to preference for particular locations or objects. All training and testing trials were videotaped and analyzed by individuals blind to the treatment condition and the genotype of subjects. A mouse was scored as exploring an object when its head was oriented toward the object within a distance of 1 cm or when the nose was touching the object. The relative exploration time was recorded and expressed by a discrimination index [DI=(tnovel−tfamiliar)/(tnovel+tfamiliar)×100].
Animals were tested for short-term memory 90 min after training.
In addition, a separate group of mice were given a 3 min training period and then a 7 day retention test.

mice [3] = test: Extinction of cocaine conditioned place preference (CPP); type: in vivo; conditions: 10 mg/kg s.c. immediately following Posttest; Ext2 and Ext3
Protocol: (§5) Conditioned place preference experiments were similar to those described in Malvaez et al. (Malvaez, M., et al., Biological Psychiatry, 67, 36-43, 2010, the disclosure of which is incorporated herein by reference). Mice were briefly handled for 3 consecutive days (days 1-3). Baseline preferences were assessed by placing the animals in the three-chambered apparatus for 15 min (Pretest, day 4). Time spent in each compartment was recorded. Conditioning took place over the next 4 days with the guillotine doors closed, confining animals to a specific compartment for 30 min (days 5-8). An unbiased paradigm was used such that half of the animals were injected with cocaine (20 mg/kg, i.p.) before placement in the checkered compartment and half were injected with cocaine before placement in the white compartment (CS+). The next day, mice received 0.9% saline injection (1.0 ml/kg, i.p.) before placement in the alternate compartment (CS−). Injections were alternated for subsequent conditioning sessions. Forty-eight hours after the last conditioning session, animals had access to all 3 compartments and preference was assessed in a drug-free state (15 min, Posttest; day 10). This is also the first of the extinction sessions which occurred daily until extinction criteria were met. […]

mice [4] = test: Cocaine-primed reinstatement of conditioned place preference; type: in vivo; conditions: cocaine prime 10 mg/kg i.p.
Protocol: as §5, with “The next day, mice received 0.9% saline injection (1.0 ml/kg, i.p.) before placement in the alternate compartment (CS−). Injections were alternated for subsequent conditioning sessions.” left out, “10).” for “10). This is also the first of the extinction sessions which occurred daily until extinction criteria were met.”
In an experiment with a similar design as described above, animals were confined to a specific compartment and given cocaine (5 mg/kg, i.p.) or saline on alternating days. […] Forty-eight hours after the last conditioning session, animals had free access to all 3 compartments and preference was assessed in a drug-free state (15 min, Posttest; day 10). […]

mice [5] = test: Acquisition of cocaine conditioned place preference, treatment after conditioning sessions; type: in vivo; conditions: 10 mg/kg s.c. following each conditioning session; cocaine 5 mg/kg i.p.
Protocol: In an experiment with a similar design as described above, animals were confined to a specific compartment and given cocaine (5 mg/kg, i.p.) or saline on alternating days. Immediately following the conditioning session (30 min), mice received an injection of RGFP966 (10 mg/kg, s.c.) or vehicle and then returned to the home cage. Forty-eight hours after the last conditioning session, animals had free access to all 3 compartments and preference was assessed in a drug-free state (15 min, Posttest; day 10). CPP score indicates preference by mean±S.E.M. of time in CS+ minus CS− compartment. All groups extinguished the preference for the CS+ compartment by extinction day 6. The following day, animals received a cocaine prime (10 mg/kg, i.p.) and were placed in the test chamber (Reinstatement).
In this test, mice were conditioned with two pairings of a low dose of cocaine (5 mg/kg, i.p.) and saline. Following each conditioning session, mice received RGFP966 (10 mg/kg, s.c.) or vehicle.

| Structure (SMILES) | neuronal morphology (DAPI staining) vs vehicle (neuronal morphology) | memory for novel object location vs vehicle, OLM (CBP^+/+ mice) | immunoreactivity for H4K8Ac vs vehicle (H4K8Ac) | HDAC2 expression vs vehicle (HDAC2) | HDAC4 nuclear expression vs vehicle (HDAC4) | long-term memory formation vs vehicle-treated mice, ORM (C57BL/6J male mice [1]) | dose-dependent effect on ORM (C57BL/6J male mice [1]) | Cmax (in vivo) [nM] | effect on long-term memory, OLM (CBP^KIX/KIX mice) | memory for object location vs vehicle, OLM (C57BL/6J male mice [2]; 24 hours) | memory for object location vs vehicle, OLM (C57BL/6J male mice [2]; 7 day retention test) | preference for the object in the novel location vs vehicle, OLM (C57BL/6J male mice [2]; 30 mg/kg s.c. post-training, 24 h retention test) | extinction of preference for the cocaine-paired compartment (CPP score) (mice [3]) | reinstatement of preference after cocaine prime (mice [4]; 3 mg/kg received during extinction) | reinstatement of preference after cocaine prime (mice [4]; 10 mg/kg received during extinction) | effect on cocaine conditioned place preference (Posttest) (mice [5]) |
| --- | --- | --- | --- | --- | --- | --- | --- | --- | --- | --- | --- | --- | --- | --- | --- | --- |
| Cc1ccc(C(=O)NCCCCCC(=O)Nc2ccc(F)cc2N)cc1 [RGFP136, N-(6-(2-amino-4-fluorophenylamino)-6-oxohexyl)-4-methylbenzamide] | does not alter neuronal morphology | significantly greater memory | increase | unchanged | loss of HDAC4 nuclear expression | significantly enhanced | Significant dose-dependent effects | ~1700 | no effect | greater memory | significantly greater memory | significant preference | – | – | – | – |
| Nc1cc(F)ccc1NC(=O)/C=C/c1cnn(CC=Cc2ccccc2)c1 [RGFP966, (E)-N-(2-amino-4-fluorophenyl)-3-(1-cinnamyl-1H-pyrazol-4-yl)acrylamide] | – | – | – | – | – | significantly enhanced | lack of an observed dose effect | – | – | – | – | – | rapid extinction | significant preference | did not reinstate a preference | does not alter |
